± gives the expanded uncertainty stated by the source.

We go through 3 compounds from the NIST ThermoML archive (doi:10.1016/j.fluid.2018.07.014).

The nature of this data set: Boiling temperature at pressure P. The conditions noted are these: Liquid, Closed cell (Static) method.

For `CCCCC(=O)OCC` [ethyl pentanoate], the “Boiling temperature at pressure P” value was 72.2 ± 10 °C (7.1 kPa); 77.6 ± 9 °C (8.9 kPa); 88.0 ± 6.9 °C (13.9 kPa); 101.8 ± 4.9 °C (24.1 kPa); 115.2 ± 3.7 °C (39.1 kPa); 122.6 ± 3 °C (52.7 kPa). Further, the “Boiling temperature at pressure P” value runs as follows: (69.3 kPa) 130.8 ± 2.9 °C; (91.7 kPa) 141.8 ± 2.9 °C.

For the compound `O` [water], the “Boiling temperature at pressure P” value (6.9 kPa) was 38.8 ± 8.5 °C; the “Boiling temperature at pressure P” value (9 kPa) was found to be 44 ± 7.7 °C; the “Boiling temperature at pressure P” value (14.1 kPa) came out at 53 ± 6 °C; the “Boiling temperature at pressure P” value (24.1 kPa) turned out to be 64.2 ± 4.3 °C; the “Boiling temperature at pressure P” value (39.5 kPa) came to 75.7 ± 3.4 °C; the “Boiling temperature at pressure P” value (54.3 kPa) turned out to be 83.8 ± 2.8 °C. Also, the “Boiling temperature at pressure P” value was 90.0 ± 2.6 °C (69.5 kPa) and 98.0 ± 2.5 °C (92.1 kPa).

For `CCO` [ethanol], the “Boiling temperature at pressure P” value is 30.2 ± 7.1 °C (9.6 kPa); 36.8 ± 5.2 °C (13.7 kPa); 47 ± 3.9 °C (23.8 kPa); 57.0 ± 3.1 °C (38.9 kPa); 64.4 ± 2.7 °C (54.5 kPa); 69.7 ± 2.4 °C (69.5 kPa). For the same compound, the “Boiling temperature at pressure P” value (91.7 kPa) came to 76.6 ± 2.4 °C.
